Data as given in patent publication US3966744A, “Spin labeled compounds” (priority 1974, dated 1976).
Values joined by “and” are separate entries in the source; they are usually repeats but may differ in a detail not shown here. Equal values may be shown once. Where a name gives a salt, the structure may show the parent alone. Read-outs that look alike come from different tables or passages of the source.

Assays:
[1] = system: supported morphine antibodies; test: Binding of free radical labeled morphine to supported morphine antibodies (ESR); parameters: species or system rabbit; conditions: pH 8 borate buffer, 10^-4 M label, 2 hours
[2] = Storage stability of the cocaine assay spin label (binding constant); format: physicochemical; conditions: storage in distilled water, substantially metal ion free, carbon dioxide bubbled through
Description: The spin labeled compound employed was prepared according to Example 7.1.

[3] = system: dinitrophenyl antibodies; test: Spin immunoassay with labeled dinitrophenyl hapten and dinitrophenyl antibodies (ESR); format: binding; conditions: increasing amounts, 10^-5 M solution in water, maximum 14 μl
Description: (The antibodies were prepared according to Eisen, et al., JACS, 75, 4583 (1953) and the labeled hapten was prepared in accordance with Hsia, et al, Archives of Biochemistry and Biophysics 132, 466 (1969)). The following procedure was employed. The quantities of the two compounds were chosen by adding small portions of the haptens to the antibody solution until the ESR signal intensity began to rise sharply with addition of each portion. At this point, all the binding sites on the antibodies were occupied by the label and the addition was stopped. Increasing amounts of N-epsilon-dinitrophenyllysine were then added to the solution.
The labeled hapten was dissolved in 20 percent aq. methanol at about 1-2 × 10^-^5 M concentration. Approximately 10 μl of the antibody solution and 10-20 μl of the labeled hapten solution were combined and varying amounts of 10^-^5 M solution of N-epsilon-dinitrophenyllysine in water added, the maximum being 14 μl.
By using appropriate standards, the ESR signal intensity may be related to the concentration of the N-epsilon dinitrophenyllysine in solution. Therefore, by taking an unknown solution suspected of having such a hapten, and introducing a standardized amount of the antibody-hapten complex, one can rapidly determine the concentration of the N-epsilon dinitrophenyllysine in solution.

[4] = system: phenobarbital antibody; test: Phenobarbital spin immunoassay; conditions: 1 × 10^-5 M (2.2-2.6 μg/ml), pH 7, 10 µM
[5] = system: secobarbital antibody; test: Secobarbital (seconal) spin immunoassay
[6] = system: Amphetamine antibody; test: Amphetamine spin immunoassay; format: binding, rabbit; conditions: for mobilization with urine of individuals who indicated taking cross reacting substances: six of 100 urines, background 10% or less
Description: Two plastic cups were employed. In one cup was 2.5 μl of 0.2 M sodium dichromate. In the other cup was 5.0 μl of antibody solution. The sample was transferred employing a 25 μl Oxford Sampler and introduced into the cup containing dichromate. The dichromate sample solution was agitated by means of the sample, drawn up with the sampler and introduced into the cup containing antibody, without touching the antibody. To the resulting solution was then added 5 μl of spin label, the sample was then stirred with an ESR capillary tube, the sample allowed to rise into the capillary and the spectrum read.

[7] = system: antibody (cocaine assay); format: binding, rabbit; conditions: read from graph
[8] = system: morphine antibody; test: Detection of morphine and its metabolite in urine by spin immunoassay (ESR); format: binding, rabbit
[9] = system: morphine antibodies; test: Morphine spin immunoassay (ESR), specificity; conditions: spin label of Example 2.1
[10] = system: antibody (methadone assay); format: binding, rabbit; conditions: 3.4 μg/ml
Description: The spin immunoassay was carried out similarly to the prior assays. Two plastic cups were employed, one cup containing 5 μl of 0.2 molar sodium dichromate and the second 5 μl of borate buffered antibody at pH 8. […] To the dichromate is added 50 μl of sample and a 20 μl aliquot is transferred from the first cup to the second cup containing the antibody solution.
Fifty-five urine samples were tested according to the above procedure.

[11] = urine samples 6-10 of drug takers, percentage of maximum increase with high concentrations of morphine, drug taken

SMILES: CN1CC[C@]23c4c5ccc(OCC(=O)NC6CC(C)(C)N([O])C(C)(C)C6)c4O[C@H]2[C@@H](O)C=C[C@H]3[C@H]1C5 [Example 2.2, 4-[2'(O^3" Morphino)acetamido]-2,2,6,6-tetramethylpiperidino-1-oxyl]
- binding of the free radical labeled morphine to the receptor (ESR signals) [1]: broad ESR signals indicating the binding of the free radical labeled morphine to the receptor

SMILES: COC(=O)[C@H]1[C@@H](OC(=O)c2ccc(NC(=O)C3CC(C)(C)N([O])C3(C)C)cc2)C[C@@H]2CC[C@H]1N2C (some centres unmarked) [Example 7.1]
- binding constant on storage of the spin label [2]: the binding constant diminished with time unless the spin label was stored at pH 5 in the absence of any buffer

SMILES: NC(CCCCNc1ccc([N+](=O)[O-])cc1[N+](=O)[O-])C(=O)O (centres unmarked) [N-epsilon-dinitrophenyllysine]
- ESR signal on addition to antibodies-labeled hapten complex [3]: an increase in the ESR signal was observed

SMILES: CCC1(CCC(C)C)C(=O)NC(=O)NC1=O [amobarbital]
- % Mobilization [4]: 16%
- minimum concentration that could be detected [5]: 2.5 µg/mL

SMILES: CC(N)Cc1ccccc1 (centres unmarked) [amphetamine.HCl]
- % Mobilization ([6]; 1.7 μg/ml (1.1 × 10^-5 M)): 26%

SMILES: CC(N)Cc1ccccc1 (centres unmarked) [amphetamine]
- recognition by the amphetamine antibody [6]: recognizes
- peak ratio (amphetamine/saline) ([6]; 10^-3 molar amphetamine, loading ratio 0.95): 5
- mobilization with urine of individuals who indicated taking cross reacting substances [6]: greater than 14%

SMILES: CC(Cc1ccccc1)N(C)Cc1ccccc1 (centres unmarked) [benzophetamine.HCl]
- % Mobilization ([6]; 2.5 μg/ml (0.8-2.1 × 10^-5 M)): 12%

SMILES: COC(=O)[C@H]1[C@@H](OC(=O)c2ccccc2)C[C@@H]2CC[C@H]1N2C [cocaine]
- % Mobilization ([7]; 1 μg/ml): 49%
- % Mobilization ([7]; 10 μg/ml): 80%

SMILES: COc1ccc2c3c1O[C@H]1[C@@H](O)C=C[C@H]4[C@@H](C2)N(C)CC[C@@]341 [codeine]
- % Signal Increase [8, 11]: 75% and 62%
- detection by the morphine assay [9]: detected by the same procedure

SMILES: COc1ccc2c(c1)[C@]13CCCC[C@@H]1[C@H](C2)N(C)CC3 [dextromethorphan]
- % Mobilization ([7]; 10 μg/ml): 33%

SMILES: CCC1(c2ccccc2)CCC(=O)NC1=O (centres unmarked) [glutethimide]
- % Mobilization [4]: 0.5%

SMILES: CC(=O)Oc1ccc2c3c1O[C@H]1[C@@H](OC(C)=O)C=C[C@H]4[C@@H](C2)N(C)CC[C@@]341 [heroin]
- % Signal Increase ([8]; urine of single heroin user, day 2, drug taken on second and fifth days): 57%
- % Signal Increase ([8]; urine of single heroin user, day 3, drug taken on second and fifth days): 32%
- % Signal Increase ([8]; urine of single heroin user, day 4, drug taken on second and fifth days): 26%
- % Signal Increase ([8]; urine of single heroin user, day 5, drug taken on second and fifth days): 47%
- % Signal Increase ([8]; urine of single heroin user, day 6, drug taken on second and fifth days): 26%
- % Signal Increase ([8]; urine of single heroin user, day 7, drug taken on second and fifth days): 16%
- % Signal Increase ([8]; urine of single heroin user, day 8, drug taken on second and fifth days): 8%
- % Signal Increase ([8]; urine of single heroin user, day 9, drug taken on second and fifth days): 40%
- % Signal Increase [8, 11]: 81% and 100%

SMILES: CNC(C)(C)Cc1ccccc1 [mephentermine.H2 SO4]
- % Mobilization ([6]; 2.5 μg/ml (0.8-2.1 × 10^-5 M)): 28%

SMILES: CNC(C)(C)Cc1ccccc1 [mephentermine]
- recognition by the amphetamine antibody [6]: recognizes
- % Mobilization ([7]; 10 μg/ml): 35%

SMILES: CCC1(c2ccccc2)C(=O)NC(=O)N(C)C1=O (centres unmarked) [mephobarbital]
- % Mobilization [4]: 32%

SMILES: COc1cc(CCN)cc(OC)c1OC [mescaline]
- mobilization with urine of individuals who indicated taking cross reacting substances [6]: greater than 14%

SMILES: CCC(=O)C(CC(C)N(C)C)(c1ccccc1)c1ccccc1 (centres unmarked) [methadone]
- detection by the morphine assay [9]: insensitive

SMILES: CNC(C)Cc1ccccc1 (centres unmarked) [methamphetamine.HCl]
- % Mobilization ([6]; 2.5 μg/ml (0.8-2.1 × 10^-5 M)): 29%

SMILES: CN[C@@H](C)Cc1ccccc1 [methamphetamine]
- recognition by the amphetamine antibody [6]: recognizes

SMILES: CCC1(CC)C(=O)NC(=O)N(C)C1=O [metharbital]
- % Mobilization [4]: 6%

SMILES: CN1CC[C@]23c4c5ccc(O[C@@H]6O[C@H](C(=O)O)[C@@H](O)[C@H](O)[C@H]6O)c4O[C@H]2[C@@H](O)C=C[C@H]3[C@H]1C5 [morphine-O^3 -glucuronide]
- detection by the morphine assay [9]: can also be detected

SMILES: C=CCN1CC[C@]23c4c5ccc(O)c4O[C@H]2[C@@H](O)C=C[C@H]3[C@H]1C5 [nalorphine]
- detection by the morphine assay [9]: can also be detected

SMILES: CCCC(C)C1(CC)C(=O)NC(=O)NC1=O (centres unmarked) [pentobarbital]
- minimum concentration that could be detected [5]: 2 µg/mL

SMILES: NCCc1ccccc1 [phenethylamine]
- % Mobilization ([6]; 2.5 μg/ml (0.8-2.1 × 10^-5 M)): 26%

SMILES: CCC1(c2ccccc2)C(=O)NC(=O)NC1=O [phenobarbital]
- % Mobilization [4]: 25%

SMILES: CC(N)C(O)c1ccccc1 (centres unmarked) [phenylpropanolamine.HCl]
- % Mobilization ([6]; 2.5 μg/ml (0.8-2.1 × 10^-5 M)): 13%

SMILES: CC(N)C(O)c1ccccc1 (centres unmarked) [phenylpropanolamine]
- mobilization with urine of individuals who indicated taking cross reacting substances [6]: greater than 14%
- % Mobilization ([7]; 10 μg/ml): 26%

SMILES: CNC(C)CC1CCCCC1 (centres unmarked) [propylhexedrine.HCl]
- % Mobilization ([6]; 250 μg/ml (131 × 10^-5 M)): 71%

SMILES: CN[C@@H](C)[C@@H](O)c1ccccc1 [pseudophedrine]
- mobilization with urine of individuals who indicated taking cross reacting substances [6]: greater than 14%

SMILES: C=CCC1(C(C)CCC)C(=O)NC(=O)NC1=O (centres unmarked) [secobarbital]
- % Mobilization [4]: 7%
- sensitivity of the assay [5]: the greatest sensitivity is achieved with secobarbital

SMILES: CCCC(C)C1(CC)C(=O)NC(=O)NC1=O (centres unmarked) [sodium pentobarbital]
- % Mobilization [4]: 10%

SMILES: CCC1(c2ccccc2)C(=O)NC(=O)NC1=O [sodium phenobarbital]
- minimum concentration that could be detected [5]: 40 µg/mL

SMILES: CCCC(C)C1(CC)C(=O)NC(=S)NC1=O (centres unmarked) [thiopental sodium]
- minimum concentration that could be detected [5]: 3.5 µg/mL

SMILES: CN(C)CCCN1c2ccccc2Sc2ccc(Cl)cc21 [thorazine]
- % Mobilization [10]: 9%
